# Source: PubChem BioAssay (NCI)
#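 Tested at 5 concentrations; 48 h exposure; 96-well plates; endpoints linearly interpolated, else capped at highest concentration. GI50 is the concentration that inhibits growth by half. TGI: total growth inhibition.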
# What was measured:
# Test in all cases: NCI anticancer screen, dose series, 48 h
# HCT-116 colon = test system: HCT-116 colon
# KM12 colon = test system: KM12 colon
# SW-620 colon = test system: SW-620 colon
# RPMI-8226 leukemia = test system: RPMI-8226 leukemia
# CCRF-CEM leukemia = test system: CCRF-CEM leukemia
# A498 renal = test system: A498 renal
# 786-0 renal = test system: 786-0 renal
# HOP-62 NSCLC = test system: HOP-62 NSCLC
# TK-10 renal = test system: TK-10 renal
# NCI-H460 lung = test system: NCI-H460 lung
# SK-OV-3 ovarian = test system: SK-OV-3 ovarian
# UACC-62 melanoma = test system: UACC-62 melanoma
# A549 NSCLC = test system: A549 NSCLC
# LXFL 529 NSCLC = test system: LXFL 529 NSCLC
# RXF 393 renal = test system: RXF 393 renal
# OVCAR-8 ovarian = test system: OVCAR-8 ovarian
# KM20L2 colon = test system: KM20L2 colon
# HCT-15 colon = test system: HCT-15 colon
# ACHN renal = test system: ACHN renal
# CAKI-1 renal = test system: CAKI-1 renal
# COLO 205 colon = test system: COLO 205 colon
# SNB-19 CNS = test system: SNB-19 CNS
# NCI-H23 lung = test system: NCI-H23 lung
# SF-268 CNS = test system: SF-268 CNS
# SK-MEL-2 melanoma = test system: SK-MEL-2 melanoma
# U251 CNS = test system: U251 CNS
# DLD-1 colon = test system: DLD-1 colon
# IGROV1 ovarian = test system: IGROV1 ovarian
# SNB-75 CNS = test system: SNB-75 CNS
# EKVX NSCLC = test system: EKVX NSCLC
# HOP-92 NSCLC = test system: HOP-92 NSCLC
# M19-MEL melanoma = test system: M19-MEL melanoma
# SF-295 CNS = test system: SF-295 CNS
# UACC-257 melanoma = test system: UACC-257 melanoma
# K-562 leukemia = test system: K-562 leukemia
# SK-MEL-28 melanoma = test system: SK-MEL-28 melanoma
# NCI-H522 lung = test system: NCI-H522 lung
# NCI-H226 lung = test system: NCI-H226 lung
# OVCAR-5 ovarian = test system: OVCAR-5 ovarian
# SF-539 CNS = test system: SF-539 CNS
# UO-31 renal = test system: UO-31 renal
# M14 melanoma = test system: M14 melanoma
# MALME-3M melanoma = test system: MALME-3M melanoma
# SK-MEL-5 melanoma = test system: SK-MEL-5 melanoma
# HL-60(TB) leukemia = test system: HL-60(TB) leukemia
# HOP-18 NSCLC = test system: HOP-18 NSCLC
# SN12C renal = test system: SN12C renal
# HCC-2998 colon = test system: HCC-2998 colon
# HT29 colon = test system: HT29 colon
# LOX IMVI melanoma = test system: LOX IMVI melanoma
smiles,measurement,setting,value
CC(=O)[CH-]C(=O)c1ccccc1.CC(=O)[CH-]C(=O)c1ccccc1.CN(C)c1ccc([O-])cc1.CN(C)c1ccc([O-])cc1.Cl.[Ti+4],GI50,HCT-116 colon,18.1 µM
same,TGI,HCT-116 colon,> 31.6 µM
same,GI50,KM12 colon,13.2 µM
same,TGI,KM12 colon,23.8 µM
same,GI50,SW-620 colon,18.5 µM
same,TGI,SW-620 colon,> 31.6 µM
same,GI50,RPMI-8226 leukemia,16.8 µM
same,TGI,RPMI-8226 leukemia,> 31.6 µM
same,GI50,CCRF-CEM leukemia,9.65 µM
same,TGI,CCRF-CEM leukemia,> 31.6 µM
same,GI50,A498 renal,31.1 µM
same,TGI,A498 renal,> 100 µM
same,GI50,786-0 renal,22.8 µM
same,TGI,786-0 renal,> 31.6 µM
same,GI50,HOP-62 NSCLC,21.8 µM
same,TGI,HOP-62 NSCLC,> 31.6 µM
same,GI50,TK-10 renal,71.6 µM
same,TGI,TK-10 renal,> 100 µM
same,GI50,NCI-H460 lung,15.1 µM
same,TGI,NCI-H460 lung,> 31.6 µM
same,GI50,SK-OV-3 ovarian,17.1 µM
same,TGI,SK-OV-3 ovarian,> 31.6 µM
same,GI50,UACC-62 melanoma,> 31.6 µM
same,TGI,UACC-62 melanoma,> 31.6 µM
same,GI50,A549 NSCLC,29 µM
same,TGI,A549 NSCLC,> 31.6 µM
same,GI50,LXFL 529 NSCLC,16 µM
same,TGI,LXFL 529 NSCLC,> 31.6 µM
same,GI50,RXF 393 renal,27.3 µM
same,TGI,RXF 393 renal,> 31.6 µM
same,GI50,OVCAR-8 ovarian,21.9 µM
same,TGI,OVCAR-8 ovarian,> 31.6 µM
same,GI50,KM20L2 colon,20.4 µM
same,TGI,KM20L2 colon,> 31.6 µM
same,GI50,HCT-15 colon,25.5 µM
same,TGI,HCT-15 colon,> 31.6 µM
same,GI50,ACHN renal,16.9 µM
same,TGI,ACHN renal,> 31.6 µM
same,GI50,CAKI-1 renal,21 µM
same,TGI,CAKI-1 renal,> 31.6 µM
same,GI50,COLO 205 colon,14.9 µM
same,TGI,COLO 205 colon,22.5 µM
same,GI50,SNB-19 CNS,22 µM
same,TGI,SNB-19 CNS,> 31.6 µM
same,GI50,NCI-H23 lung,21.1 µM
same,TGI,NCI-H23 lung,> 31.6 µM
same,GI50,SF-268 CNS,> 31.6 µM
same,TGI,SF-268 CNS,> 31.6 µM
same,GI50,SK-MEL-2 melanoma,> 31.6 µM
same,TGI,SK-MEL-2 melanoma,> 31.6 µM
same,GI50,U251 CNS,> 31.6 µM
same,TGI,U251 CNS,> 31.6 µM
same,GI50,DLD-1 colon,15.6 µM
same,TGI,DLD-1 colon,> 31.6 µM
same,GI50,IGROV1 ovarian,46.8 µM
same,TGI,IGROV1 ovarian,> 100 µM
same,GI50,SNB-75 CNS,> 31.6 µM
same,TGI,SNB-75 CNS,> 31.6 µM
same,GI50,EKVX NSCLC,24.6 µM
same,TGI,EKVX NSCLC,> 31.6 µM
same,GI50,HOP-92 NSCLC,14.9 µM
same,TGI,HOP-92 NSCLC,27.5 µM
same,GI50,M19-MEL melanoma,15.1 µM
same,TGI,M19-MEL melanoma,26.4 µM
same,GI50,SF-295 CNS,46.3 µM
same,TGI,SF-295 CNS,> 100 µM
same,GI50,UACC-257 melanoma,> 31.6 µM
same,TGI,UACC-257 melanoma,> 31.6 µM
same,GI50,K-562 leukemia,9.89 µM
same,TGI,K-562 leukemia,> 31.6 µM
same,GI50,SK-MEL-28 melanoma,> 31.6 µM
same,TGI,SK-MEL-28 melanoma,> 31.6 µM
same,GI50,NCI-H522 lung,12.3 µM
same,TGI,NCI-H522 lung,24 µM
same,GI50,NCI-H226 lung,18.2 µM
same,TGI,NCI-H226 lung,30.9 µM
same,GI50,OVCAR-5 ovarian,49.2 µM
same,TGI,OVCAR-5 ovarian,> 100 µM
same,GI50,SF-539 CNS,19 µM
same,TGI,SF-539 CNS,> 31.6 µM
same,GI50,UO-31 renal,17.9 µM
same,TGI,UO-31 renal,> 31.6 µM
same,GI50,M14 melanoma,17.5 µM
same,TGI,M14 melanoma,> 31.6 µM
same,GI50,MALME-3M melanoma,14.8 µM
same,TGI,MALME-3M melanoma,26.4 µM
same,GI50,SK-MEL-5 melanoma,40 µM
same,TGI,SK-MEL-5 melanoma,> 88 µM
same,GI50,HL-60(TB) leukemia,20.9 µM
same,TGI,HL-60(TB) leukemia,> 31.6 µM
same,GI50,HOP-18 NSCLC,23.1 µM
same,TGI,HOP-18 NSCLC,> 31.6 µM
same,GI50,SN12C renal,23.7 µM
same,TGI,SN12C renal,> 31.6 µM
same,GI50,HCC-2998 colon,20.7 µM
same,TGI,HCC-2998 colon,> 31.6 µM
same,GI50,HT29 colon,18.1 µM
same,TGI,HT29 colon,> 31.6 µM
same,GI50,LOX IMVI melanoma,26 µM
same,TGI,LOX IMVI melanoma,> 100 µM
